Experimental data published in patent US12590953B2, “Methods for screening cereblon modifying compounds” (CELGENE CORPORATION, priority 2018, dated 2026).
Entries after “also recorded” stand apart in the source; their conditions may differ.

How the values were obtained:
[1] = biological target: T1, ZFP91 cereblon-binding zinc finger (a.a. 395-423) / human cereblon (Homo sapiens, UniProt Q96JP5+Q96SW2); experiment: In vitro ubiquitination of ZFP91 zinc finger by human cereblon; format: biochemical; conditions: thalidomide vs DMSO
T1 construct: Human cereblon-DDB1 (cereblon amino acids 40-442 and full length DDB1); ZZ-domain-6xHis-thrombin site (N, cleaved yes); made in house; host or cells: SF9 insect cells (cereblon-DDB1, Cul4A-Rbx1); E. coli BL21 (DE3) Star (MBP-zinc finger)
T1 sequence (Q96SW2 40-442 limits assumed): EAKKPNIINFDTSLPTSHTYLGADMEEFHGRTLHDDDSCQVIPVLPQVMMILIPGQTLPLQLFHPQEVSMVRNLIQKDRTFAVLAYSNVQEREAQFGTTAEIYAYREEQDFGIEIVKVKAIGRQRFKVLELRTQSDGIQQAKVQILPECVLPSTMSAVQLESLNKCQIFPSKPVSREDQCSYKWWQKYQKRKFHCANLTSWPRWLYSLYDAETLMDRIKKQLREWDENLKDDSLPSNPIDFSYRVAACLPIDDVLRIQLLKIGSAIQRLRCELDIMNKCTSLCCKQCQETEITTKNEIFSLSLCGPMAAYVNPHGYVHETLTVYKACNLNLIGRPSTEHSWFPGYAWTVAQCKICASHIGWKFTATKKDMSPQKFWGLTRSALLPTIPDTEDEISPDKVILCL
T1 sequence (Q96JP5 395-423 limits assumed): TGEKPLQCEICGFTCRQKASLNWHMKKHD
T1 sequence (Q16531 whole entry partner, the tested form may be a part): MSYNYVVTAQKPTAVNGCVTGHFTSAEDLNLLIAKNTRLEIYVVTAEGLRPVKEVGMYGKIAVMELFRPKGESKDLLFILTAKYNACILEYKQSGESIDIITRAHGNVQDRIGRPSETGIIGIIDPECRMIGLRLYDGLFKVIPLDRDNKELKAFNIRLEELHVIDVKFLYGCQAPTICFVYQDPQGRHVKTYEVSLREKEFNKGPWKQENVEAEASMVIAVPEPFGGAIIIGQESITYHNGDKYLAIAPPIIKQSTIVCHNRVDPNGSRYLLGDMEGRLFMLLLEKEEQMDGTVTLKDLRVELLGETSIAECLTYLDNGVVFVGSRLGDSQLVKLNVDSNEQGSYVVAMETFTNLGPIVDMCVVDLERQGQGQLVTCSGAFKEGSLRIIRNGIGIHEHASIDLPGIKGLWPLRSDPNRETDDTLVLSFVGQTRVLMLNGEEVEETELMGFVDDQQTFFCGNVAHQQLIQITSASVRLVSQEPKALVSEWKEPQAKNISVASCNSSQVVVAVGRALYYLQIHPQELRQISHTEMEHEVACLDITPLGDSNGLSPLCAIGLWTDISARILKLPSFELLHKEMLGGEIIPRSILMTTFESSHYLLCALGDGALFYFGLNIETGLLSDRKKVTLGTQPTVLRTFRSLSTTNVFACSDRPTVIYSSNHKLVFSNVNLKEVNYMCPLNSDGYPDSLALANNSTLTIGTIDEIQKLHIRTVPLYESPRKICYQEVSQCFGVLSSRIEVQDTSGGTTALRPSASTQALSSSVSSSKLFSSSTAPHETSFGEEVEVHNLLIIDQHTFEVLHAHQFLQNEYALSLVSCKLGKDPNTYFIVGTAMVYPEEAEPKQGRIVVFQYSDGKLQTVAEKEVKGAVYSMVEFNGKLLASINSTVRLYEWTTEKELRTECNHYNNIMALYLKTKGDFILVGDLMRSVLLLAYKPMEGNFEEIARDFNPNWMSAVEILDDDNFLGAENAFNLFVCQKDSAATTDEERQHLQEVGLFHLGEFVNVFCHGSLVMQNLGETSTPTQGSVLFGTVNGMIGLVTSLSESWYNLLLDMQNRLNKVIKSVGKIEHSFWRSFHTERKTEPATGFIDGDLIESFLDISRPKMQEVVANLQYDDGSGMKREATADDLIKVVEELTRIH
T1 sequence (Q13619 whole entry partner, the tested form may be a part): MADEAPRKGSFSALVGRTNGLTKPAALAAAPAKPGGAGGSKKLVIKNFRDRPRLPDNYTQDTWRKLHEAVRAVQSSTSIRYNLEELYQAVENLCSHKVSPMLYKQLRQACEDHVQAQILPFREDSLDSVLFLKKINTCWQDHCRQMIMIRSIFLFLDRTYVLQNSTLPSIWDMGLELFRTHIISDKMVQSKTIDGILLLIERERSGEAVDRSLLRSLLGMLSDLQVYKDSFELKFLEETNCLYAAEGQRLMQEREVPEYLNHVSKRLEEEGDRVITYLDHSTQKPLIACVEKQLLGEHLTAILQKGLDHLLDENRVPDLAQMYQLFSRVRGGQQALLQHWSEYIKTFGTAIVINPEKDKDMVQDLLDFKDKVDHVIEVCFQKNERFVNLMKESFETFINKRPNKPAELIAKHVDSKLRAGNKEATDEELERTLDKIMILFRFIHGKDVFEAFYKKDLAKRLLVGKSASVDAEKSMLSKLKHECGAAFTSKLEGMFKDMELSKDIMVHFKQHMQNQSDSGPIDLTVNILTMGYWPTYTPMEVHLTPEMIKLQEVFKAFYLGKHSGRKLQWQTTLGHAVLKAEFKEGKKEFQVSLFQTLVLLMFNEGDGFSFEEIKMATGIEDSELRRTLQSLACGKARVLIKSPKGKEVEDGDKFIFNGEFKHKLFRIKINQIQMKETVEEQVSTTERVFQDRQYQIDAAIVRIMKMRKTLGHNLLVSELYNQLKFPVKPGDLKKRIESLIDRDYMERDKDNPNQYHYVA
T1 sequence (P62877 whole entry partner, the tested form may be a part): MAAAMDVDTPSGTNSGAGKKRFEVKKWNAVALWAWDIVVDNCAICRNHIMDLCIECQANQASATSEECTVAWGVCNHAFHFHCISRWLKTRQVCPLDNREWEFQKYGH
Protocol: Glycine degron-containing zinc fingers are highlighted with stars. […] Ubiquitination reactions were separated by SDS-PAGE followed by anti-MBP western blot. […] Results in panels b and c are representative of 3 independent experiments.
Purified E1, E2, ubiquitin, Cul4A-Rbx1, cereblon-DDB1, and GSPT1 proteins were used to reconstitute the ubiquitination of MBP-fused WT and mutant proteins in vitro. Substrate proteins purified by maltose affinity resin (NEB) were incubated at an approximate concentration of 30 uM. Ubiquitination components described briefly: Human cereblon-DDB1 (cereblon amino acids 40-442 and full length DDB1) and 6×his-DDB1 alone were co-expressed in SF9 insect cells in the presence of 50 μM zinc acetate, and purified by nickel affinity resin (Qiagen), HiTrap ANX column ion exchange (GE Healthcare), and Sephacryl 400 16/60 size exclusion chromatography (GE healthcare). Human full length Cul4A and Rbx1 were co-expressed in SF9 insect cells and purified by nickel affinity resin and Superdex 200 16/60 size exclusion chromatography. Purified recombinant human Ube1 E1 (E-305), UbcH5a E2 (E2-616), and ubiquitin (U-100H) were purchased from R&D systems. […]

ZFP91 = ZFP91 (Mus musculus, UniProt Q62511); experiment: ZFP91 immunohistochemistry in huCRBN mouse testis; format: in vivo; set-up: from tissue; host or cells: testis of homozygous huCRBN knock-in mice; conditions: huCRBN mice, 1000 mg/kg for 7 days
Chain of ZFP91 (Q62511 whole entry): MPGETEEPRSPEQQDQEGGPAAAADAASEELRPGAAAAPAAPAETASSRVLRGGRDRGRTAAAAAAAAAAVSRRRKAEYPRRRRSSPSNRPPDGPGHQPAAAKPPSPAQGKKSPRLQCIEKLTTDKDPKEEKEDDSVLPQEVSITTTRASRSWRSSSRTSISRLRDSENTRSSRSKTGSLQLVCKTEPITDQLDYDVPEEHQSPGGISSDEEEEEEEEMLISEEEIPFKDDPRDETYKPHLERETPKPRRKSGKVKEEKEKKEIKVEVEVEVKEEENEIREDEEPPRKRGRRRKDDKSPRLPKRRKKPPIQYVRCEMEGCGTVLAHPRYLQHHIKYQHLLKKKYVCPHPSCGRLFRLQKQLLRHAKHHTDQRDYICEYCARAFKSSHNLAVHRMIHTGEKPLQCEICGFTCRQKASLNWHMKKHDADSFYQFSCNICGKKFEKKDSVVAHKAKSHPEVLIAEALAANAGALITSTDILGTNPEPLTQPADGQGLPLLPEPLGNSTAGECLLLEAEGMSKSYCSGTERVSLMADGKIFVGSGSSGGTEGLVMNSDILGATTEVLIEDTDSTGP
Chain of ZFP91 (Q96SW2 whole entry, further chain): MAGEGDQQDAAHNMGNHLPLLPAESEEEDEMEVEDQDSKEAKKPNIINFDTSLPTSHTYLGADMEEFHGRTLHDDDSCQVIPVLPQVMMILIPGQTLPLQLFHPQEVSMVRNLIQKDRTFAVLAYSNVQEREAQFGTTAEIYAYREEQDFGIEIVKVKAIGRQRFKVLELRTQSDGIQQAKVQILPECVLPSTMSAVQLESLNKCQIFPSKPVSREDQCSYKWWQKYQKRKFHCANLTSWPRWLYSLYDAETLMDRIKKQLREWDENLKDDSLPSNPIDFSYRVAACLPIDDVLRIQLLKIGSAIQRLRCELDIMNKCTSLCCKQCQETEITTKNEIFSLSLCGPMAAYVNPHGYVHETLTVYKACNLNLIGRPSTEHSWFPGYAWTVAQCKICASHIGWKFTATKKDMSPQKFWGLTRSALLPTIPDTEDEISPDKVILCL
Chain of ZFP91 (Q3U1J4 whole entry partner): as the sequence (Q16531 whole entry partner, the tested form may be a part) above, with N418G, A495G, T745S, T1020A counted along it
Protocol: The SALL4 and ZFP91 protein levels were examined by immunohistochemistry in rabbit, wild-type mouse, and humanized cereblon mouse testes. […] HuCRBN Mice were treated for 7 days and testis were collected and examined by immunohistochemistry (n=3 animals per treatment group per species).
Rabbit embryos were stained for SALL4, and mouse testis were stained for SALL4 and ZFP91. Immunohistochemistry (IHC) was performed on the Bond-III automated slide stainer (Leica Microsystems, Buffalo Grove, Ill.) using the Bond Polymer Refine Detection system (Leica Microsystems, DS9800). Formalin fixed paraffin embedded (FFPE) tissues were sectioned at four micron thick and deparaffinized on the Bond-Max instrument. Antigen retrieval was performed with Epitope Retrieval 2 (ER2, pH 9.0) for 20 min at 100° C. The slides were blocked for endogenous peroxidase activity with Peroxide Block for 5 minutes at room temperature. Sections were then incubated with the mouse monoclonal anti-SALL4 EE-30 antibody (Santa Cruz, sc-101147) at a 1:100 dilution for 60 min at room temperature, or with the rabbit monoclonal anti-ZFP91 antibody (Celgene custom clone 122-8-6) at 0.25 ug/ml. For mouse testis, primary antibodies were incubated for 15 min at room temperature, and Post-Primary and horseradish peroxidase (HRP) labeled Polymer were incubated at the instrument's default conditions. […]

SALL4 mRNA = experiment: qRT-PCR of SALL4 mRNA in human iPS cells; format: cell-based; conditions: 20 μM thalidomide, 16 hours, normalized with GAPDH
Protocol: Quantitative RT-PCR analysis was performed to human iPS cells treated with DMSO or 20 μM thalidomide (THA) for 16 hours. The relative mRNA level of SALL4 and POU5F1(OCT4) was normalized with GAPDH (n=2, biological replicates).
Total RNA was extracted from human iPS cells using RNeasy Mini Kit (Qiagen) according to manufacturer's instruction, and reverse-transcribed into first-strand cDNA with random primer using SuperScript™ IV First-Strand Synthesis System (ThermoFisher). Real-time PCR was performed in triplicate using ViiA 7 Real-Time PCR System with TaqMan Gene Expression Assay probes (ThermoFisher) for SALL4 (#4351372), POU5F1(#4331182) and GAPDH (#4326317E).

CK1α = CK1α (Homo sapiens, UniProt P48729); experiment: Degradation of CK1α (data not shown)
Chain of CK1α (Q96SW2 whole entry partner): as the sequence (Q96SW2 whole entry, further chain) above
Chain of CK1α (Q16531 whole entry partner): as the sequence (Q16531 whole entry partner, the tested form may be a part) above
Chain of CK1α (P48729 whole entry): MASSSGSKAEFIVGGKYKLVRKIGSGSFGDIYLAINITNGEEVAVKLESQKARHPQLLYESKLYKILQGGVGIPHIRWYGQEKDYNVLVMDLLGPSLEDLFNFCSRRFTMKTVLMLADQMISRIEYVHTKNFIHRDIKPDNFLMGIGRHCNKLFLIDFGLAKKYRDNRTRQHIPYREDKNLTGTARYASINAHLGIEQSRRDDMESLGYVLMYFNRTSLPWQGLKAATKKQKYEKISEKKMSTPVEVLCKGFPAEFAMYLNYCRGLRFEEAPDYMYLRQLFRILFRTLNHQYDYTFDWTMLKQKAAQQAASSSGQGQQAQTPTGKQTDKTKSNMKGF

Compound: O=C1CCC(N2C(=O)c3ccccc3C2=O)C(=O)N1 (stereo not shown) [thalidomide]
- Ubiquitination of ZFP91 zinc finger (a.a. 395-423) by human cereblon [1]: efficiently ubiquitinated by human cereblon in a thalidomide-dependent manner
- ZFP91 protein levels in testis (ZFP91): robustly downregulated; also recorded: caused degradation of ZFP91 but not SALL4
- SALL4 mRNA levels (SALL4 mRNA): not reduced by thalidomide treatment (FIG. 7E), and are instead increased; also recorded: decrease in SALL4 protein levels is not due to transcriptional downregulation
- Triggering the degradation of CK1α (CK1α): does not trigger the degradation of CK1α
